Results published in patent US6534035B1, “Methods of inhibiting clot formation” (President and Fellows of Harvard College, priority 1998, dated 2003).
Entries after “also recorded” stand apart in the source; their conditions may differ. Peptide text beside a SMILES is read from it. * marks the point of attachment. Biotin = O=C1N[C@H]2[C@H](CS[C@H]2CCCCC(=O)*)N1

Assays:
[1] = target: T1, human plasma FXIII (Homo sapiens, UniProt P00488); test: Crosslinking of α2AP13-24 into fibrin by plasma FXIII in FXIII-free fibrinogen; format: biochemical
T1 construct: purchased American Diagnostica; host or cells: purified from human plasma
T1 sequence (P00488 39-732 limits assumed): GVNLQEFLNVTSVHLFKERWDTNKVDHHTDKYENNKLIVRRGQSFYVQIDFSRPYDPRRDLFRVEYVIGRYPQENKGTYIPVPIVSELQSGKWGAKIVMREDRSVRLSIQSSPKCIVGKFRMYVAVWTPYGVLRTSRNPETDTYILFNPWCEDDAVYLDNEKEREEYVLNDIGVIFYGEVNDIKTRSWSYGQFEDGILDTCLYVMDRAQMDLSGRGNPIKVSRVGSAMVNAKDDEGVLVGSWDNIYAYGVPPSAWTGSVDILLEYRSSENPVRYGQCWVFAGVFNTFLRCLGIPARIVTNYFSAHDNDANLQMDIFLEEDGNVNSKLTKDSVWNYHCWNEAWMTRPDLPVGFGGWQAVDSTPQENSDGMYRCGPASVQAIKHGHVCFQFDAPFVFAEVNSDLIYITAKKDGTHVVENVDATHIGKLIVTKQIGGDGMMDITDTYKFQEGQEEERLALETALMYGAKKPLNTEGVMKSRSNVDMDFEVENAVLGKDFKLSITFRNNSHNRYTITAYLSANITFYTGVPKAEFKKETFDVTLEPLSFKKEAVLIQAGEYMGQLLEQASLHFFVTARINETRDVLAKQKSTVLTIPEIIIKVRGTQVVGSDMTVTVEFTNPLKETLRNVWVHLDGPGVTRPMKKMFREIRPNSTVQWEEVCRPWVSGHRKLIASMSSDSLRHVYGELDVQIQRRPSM
Method: Fibrin clots (50 μl) were prepared in duplicate by mixing FXIII-free fibrinogen (2 mg/ml final), α2AP13-24 (SEQ ID NO:2; 0.5 mM final), CaCl2 (2 mM final), human plasma FXIII (100 nM/L final) and guinea pig tissue transglutaminase (100 nM/L final) and thrombin (1 U/ml final) and incubating at 37° C. for 2 hours. The crosslinking of α2AP13-24 was detected as described above.

[2] = tested on: pulmonary emboli; test: Crosslinking of α2AP13-24 into pulmonary emboli in vivo; set-up: species or system ferret; settings: 0.5 mM dose of biotinylated peptide after embolization, 4 hours
Method: To examine whether FXIIIa which formed thrombi in vivo retained the ability to crosslink substrates, the ferret pulmonary embolism model was used. Clots were formed by combining 45 μl of pooled human fresh frozen plasma with ^125I-labeled fibrinogen (˜100,000 cpm/clot), 2.5 μl of 0.4 M CaCl2, and 2.5 μl thrombin (1000 U/ml). The clots were incubated at 37° C. for 20 minutes, washed three times in saline, and 6 were embolized into the lungs of each animal. Three experimental groups were examined with 2 animals in each group. One group received normal clots and a solution of α2AP13-24 (SEQ ID NO:2) calculated to produce a final peptide concentration of 0.5 mM. Another group also received the same peptide concentration; prior to embolization, the clots in this group were washed in iodoacetamide (10 mg/ml) and EDTA (10 mM final) to inhibit clot associated FXIIIa. The third group received the blood clots but no peptide infusion afterward. Four hours after embolization, the ferrets were sacrificed by CO2 inhalation. The heart, lungs, and great vessels were removed and gamma-counted to locate the pulmonary emboli.
Lung tissue containing pulmonary emboli was localized with a Geiger counter, excised and weighed. […]

## CC(C)C[C@H](NC(=O)[C@H](CC(C)C)NC(=O)[C@@H](NC(=O)[C@H](CC(C)C)NC(=O)[C@@H]1CCCN1C(=O)[C@H](CO)NC(=O)[C@@H](NC(=O)[C@H](CCC(N)=O)NC(=O)[C@H](CCC(=O)O)NC(=O)[C@H](CCC(N)=O)NC(=O)[C@@H](N)CC(N)=O)C(C)C)[C@@H](C)O)C(=O)N[C@@H](CCCCNC(=O)CCCC[C@@H]1SC[C@@H]2NC(=O)N[C@@H]21)C(=O)O [α2AP13-24, NQEQVSPLTLLK] (H-NQEQVSPLTLLK(Biotin)-OH)
[1]; equivalent amount of purified exogenous FXIIIa added to FXIIIa-deficient fibrinogen
  crosslinking of peptide to fibrin: significantly more crosslinking
[1]; purified FXIIIa-deficient fibrinogen, no enzyme added
  crosslinking of peptide to fibrin: little, if any, significant crosslinking
[2]
  incorporation of peptide into existing pulmonary emboli: specific staining was detected in the thrombus; also recorded: covalently incorporated
